{"source": "patent US20250025520A1", "about": "“MICROBE-BASED MODULATION OF SEROTONIN BIOSYNTHESIS” (The Regents of the University of California, priority 2014, published 2025)", "key": {"serum 5-HT": {"test_system": "serum 5-HT", "assay": "Serum 5-HT by ELISA", "type": "in vivo, mouse", "excerpt": "(§1) Blood samples were collected by cardiac puncture and spun through SST vacutainers (Becton Dickinson) for serum separation or PST lithium hepararin vacutainers (Becton Dickinson, Franklin Lakes, NJ) for plasma separation. The entire length of the colon or 1 cm regions of the distal, medial and proximal colon of the small intestine were washed in PBS, flushed with PBS to remove luminal contents, and sonicated on ice in 10 s intervals at 20 mV in ELISA standard buffer supplemented with ascorbic acid (Eagle Biosciences, Nashua, NH). Serotonin levels were detected in sera and supernatant of tissue homogenates by ELISA according to the manufacturer's instructions (Eagle Biosciences, Nashua, NH). Readings from tissue samples were normalized to total protein content as detected by BCA assay (Thermo Pierce). Data compiled across multiple experiments are expressed as 5-HT concentrations normalized to SPF controls within each experiment."}, "colon 5-HT": {"test_system": "colon 5-HT", "assay": "Colon 5-HT by ELISA, normalized to total protein", "type": "in vivo, mouse", "conditions": "for effects of a single rectal injection on raising colon 5-HT levels: time course", "excerpt": "as §1"}, "TPH1": {"test_system": "TPH1", "assay": "Intestinal qRT-PCR, colonic TPH1 expression relative to GAPDH", "type": "in vivo, mouse", "protocol": "The entire length of the mouse colon, or 1 cm regions of the distal, medial and proximal of the mouse small intestine were washed in PBS, flushed with PBS to remove luminal contents, and homogenized in ice-cold Trizol for RNA isolation using the RNeasy Mini Kit with on-column genomic DNA-digest (Qiagen) and cDNA synthesis using iScript (Biorad). qRT-PCR was performed on an ABI 7900 thermocycler using SYBR green master mix with Rox passive reference dye (Roche) and validated primer sets obtained from Primerbank (Harvard)."}, "RIN14B cells": {"test_system": "RIN14B cells", "assay": "RIN14B in vitro culture, 5-HT release", "conditions": "for 5-HT in RIN14B chromaffin cell cultures: α-tocopherol 8 uM, butyrate 100 uM, cholate 75 uM, deoxycholate 25 uM, p-aminobenzoate 1 uM, propionate 100 uM, tyramine 100 uM"}, "platelets": {"test_system": "platelets", "assay": "Platelet aggregation assay, collagen stimulation, flow cytometry", "type": "in vivo, mouse", "conditions": "Sp-colonized mice, colonic PCPA injection", "protocol": "Blood samples were collected by cardiac puncture, diluted with a 2× volume of HEPES medium (132 mM NaCl, 6 mM KCl, 1 mM MgSO4, 1.2 mM KH2PO4, 20 mM HEPES, 5 mM glucose; pH 7.4) and centrifuged through PST lithium hepararin vacutainers (Becton Dickinson). Expression of platelet activation markers was measured by flow cytometry (Nieswandt et al., Methods Mol. Biol. 272:255-268 (2004); Ziu et al., J. Mol. Cell. Cardiol. 52:1112-1121 (2012)). Briefly, PRP samples were supplemented with 1 mM CaCl2, and 1×10^6 platelets were stimulated with 10 μg/ml type-1 HORM collagen (Chronolog), and stained with anti-JON/APE, anti-P-selectin-FITC (Emfret Analytics), anti-CD63-PE (Biologend), anti-CD41-FITC (BD Biosciences) and anti-CD9-APC (Abcam) for 15 min at room temperature. Samples were then washed in PBS, fixed with 0.5% formaldehyde and analyzed using a FACS Calibur flow cytometer (BD Biosciences). Platelet aggregation assays were conducted according to methods described in (De Cuyper et al., Blood 121:070-e80 (2013)). Briefly, 4×10^6 platelets were stained separately with CD9-APC or CD9-PE (Abcam) for 15 minutes at room temperature and then washed with HEPES medium. Labeled platelets were mixed 1:1 and incubated for 15 minutes at 37° C., with shaking at 600 rpm. Platelets were then stimulated with 10 μg/ml type-1 collagen for 2 min and fixed in 0.5% formaldehyde for flow cytometry. […]"}, "[1]": {"test_system": "colonic enterochromaffin cells (ECs)", "assay": "Immunofluorescence staining of 5-HT and CgA in colon", "type": "in vivo, mouse", "protocol": "(§2) Mouse colon was cut into distal, medial and proximal sections, and 1 cm regions of the distal, medial and proximal small intestine were fixed in Bouin's solution (Sigma Aldrich) overnight at 4° C., washed and stored in 70% ethanol. Intestinal samples were then paraffin-embedded and cut into 10 um longitudinal sections by Pacific Pathology, Inc (San Diego, CA). Sections were stained using standard procedures. Briefly, slides were deparaffinized, and antigen retrieval was conducted for 1 hr in a 95° C. water bath in 10 mM sodium citrate, pH 6.0 or DAKO solution (Agilent Technologies). […] For 5-HT and CgA staining, numbers of positively-stained puncta were scored blindly, normalized to total area of intestinal mucosa using ImageJ software (NIH) (Schneider et al., Nature Methods 9:671-675 (2012)), and then averaged across biological replicates. For calretinin, cfos and 5HT4 staining, fluorescence intensity for individual stains was quantified and normalized to total area of intestinal submucosa and muscularis externa using ImageJ software. Colocalization was measured and analyzed using the Coloc2 plug-in for Fiji software described in Schindelin et al., Nature Methods 9:676-682 (2012). […]"}, "SLC6A4": {"test_system": "SLC6A4", "assay": "Intestinal qRT-PCR, colonic SLC6A4 expression relative to GAPDH", "type": "in vivo, mouse", "conditions": "Sp-colonized mice, PCPA intrarectally"}, "[2]": {"test_system": "intrinsic afferent primary neurons (IPANs) of the myenteric plexus", "assay": "c-fos and calretinin (Calb2) colocalization", "type": "in vivo, mouse", "conditions": "Sp-colonized mice treated with PCPA", "protocol": "as §2"}, "Tail bleed assay": {"assay": "Tail bleed assay", "type": "in vivo, mouse", "conditions": "Sp-colonized mice, intrarectal PCPA", "protocol": "Mice were anesthetized with isoflurane and the distal 6 mm portion of the tail was transected using a fresh razor blade. The tail was placed immediately at a 2 cm depth into a 50 mL conical tube containing saline pre-warmed to 37° C. (Liu et al., World J. Exp. Med. 2:30-36 (2012)). Time to bleeding cessation was recorded, with continued recording if re-bleeding occurred within 15 seconds of initial cessation and a maximum total bleed time of 5 minutes. Mice were sacrificed by CO2 immediately after the assay."}, "TPH1 in RIN14B cells": {"test_system": "TPH1 in RIN14B cells", "assay": "RIN14B in vitro culture, TPH1 expression by qRT-PCR", "conditions": "colonic luminal filtrate, or 15 uM ionomycin; relative to vehicle-treated controls"}, "[3]": {"conditions": "GF mice, oral supplementation in water 1.5 mg/ml, 2 weeks"}, "[4]": {"conditions": "GF mice, intrarectal injection: deoxycholate 125 mg/kg, α-tocopherol 2.25 mg/kg, PABA 1.37 μg/kg, tyramine 0.137 mg/kg, oleanolate 0.46 mg/kg, vs vehicle"}, "[5]": {"conditions": "GF mice colonized with hSp, PCPA treatment"}, "[6]": {"conditions": "Sp-colonized GF mice, PCPA intrarectally twice daily for 3 days"}}, "data": [{"compound": "N[C@@H](Cc1c[nH]c2ccccc12)C(=O)O", "note": "[Trp, tryptophan]", "values": [{"measurement": "serum 5-HT", "setting": "serum 5-HT; [3]", "value": "no restorative effect"}, {"measurement": "colon 5-HT", "setting": "colon 5-HT; [3]", "value": "no restorative effect"}]}, {"compound": "deoxycholate", "values": [{"measurement": "colonic TPH1 expression", "setting": "TPH1; GF mice, intrarectal deoxycholate 125 mg/kg, 1 hr post injection", "value": "elevations in colonic TPH1 expression"}, {"measurement": "serum 5-HT", "setting": "serum 5-HT; [4]", "value": "sufficiently increases"}, {"measurement": "5-HT in RIN14B chromaffin cell cultures", "setting": "RIN14B cells", "value": "elevate 5-HT"}, {"measurement": "colon 5-HT", "setting": "colon 5-HT; [4]", "value": "sufficiently increases"}, {"measurement": "effects of a single rectal injection on raising colon 5-HT levels", "setting": "colon 5-HT; GF mice", "value": "weak and transient"}]}, {"compound": "CCC(=O)O", "note": "[propionate]", "values": [{"measurement": "5-HT in RIN14B chromaffin cell cultures", "setting": "RIN14B cells", "value": "elevate 5-HT"}]}, {"compound": "Cc1c(C)c2c(c(C)c1O)CC[C@@](C)(CCC[C@H](C)CCC[C@H](C)CCCC(C)C)O2", "note": "[α-tocopherol]", "values": [{"measurement": "serum 5-HT", "setting": "serum 5-HT; [4]", "value": "Increases"}, {"measurement": "5-HT in RIN14B chromaffin cell cultures", "setting": "RIN14B cells", "value": "elevate 5-HT"}, {"measurement": "colon 5-HT", "setting": "colon 5-HT; [4]", "value": "Increases"}, {"measurement": "effects of a single rectal injection on raising colon 5-HT levels", "setting": "colon 5-HT; GF mice", "value": "weak and transient"}]}, {"compound": "N[C@@H](Cc1ccc(Cl)cc1)C(=O)O", "note": "(racemic) [PCPA, parachlorophenylalanine]", "values": [{"measurement": "Sp effect on platelet aggregation", "setting": "platelets", "value": "attenuated"}, {"measurement": "5-HT staining in colonic ECs", "setting": "[1]; [5]", "value": "blocking increases"}, {"measurement": "5-HT staining in ECs", "setting": "[1]; [6]", "value": "sufficiently blocks"}, {"measurement": "colonic TPH1 expression", "setting": "TPH1; Sp-colonized mice, PCPA intrarectally", "value": "compensatory increase in colonic TPH1"}, {"measurement": "colonic SLC6A4 expression", "setting": "SLC6A4", "value": "decrease in SLC6A4"}, {"measurement": "serum 5-HT", "setting": "serum 5-HT; [5]", "value": "blocking increases"}, {"measurement": "serum 5-HT levels", "setting": "serum 5-HT; [6]", "value": "sufficiently blocks the ability of Sp to elevate"}, {"measurement": "IPAN activation", "setting": "[2]", "value": "decreases IPAN activation"}, {"measurement": "Sp effect on bleeding time", "setting": "Tail bleed assay", "value": "attenuated"}, {"measurement": "colon 5-HT", "setting": "colon 5-HT; [5]", "value": "blocking increases"}, {"measurement": "colon 5-HT levels", "setting": "colon 5-HT; [6]", "value": "sufficiently blocks the ability of Sp to elevate"}]}, {"compound": "C[C@H](CCC(=O)O)[C@H]1CC[C@H]2[C@@H]3[C@H](O)C[C@@H]4C[C@H](O)CC[C@]4(C)[C@H]3C[C@H](O)[C@]12C", "note": "[cholate]", "values": [{"measurement": "5-HT in RIN14B chromaffin cell cultures", "setting": "RIN14B cells", "value": "elevate 5-HT"}]}, {"compound": "Bacteroides fragilis", "values": [{"measurement": "serum 5-HT levels", "setting": "serum 5-HT; GF mice colonized, monoassociated or conventionalized, compared with GF and SPF controls", "value": "deficits in serum 5-HT that are comparable to those seen in GF mice"}]}, {"compound": "NCCc1ccc(O)cc1", "note": "[tyramine]", "values": [{"measurement": "serum 5-HT", "setting": "serum 5-HT; [4]", "value": "Increases"}, {"measurement": "5-HT in RIN14B chromaffin cell cultures", "setting": "RIN14B cells", "value": "elevate 5-HT"}, {"measurement": "colon 5-HT", "setting": "colon 5-HT; [4]", "value": "Increases"}]}, {"compound": "N[C@@H](Cc1c[nH]c2ccc(O)cc12)C(=O)O", "note": "[5-HTP, 5-hydroxytryptophan]", "values": [{"measurement": "serum 5-HT", "setting": "serum 5-HT; [3]", "value": "sufficiently ameliorates deficits"}, {"measurement": "colon 5-HT", "setting": "colon 5-HT; [3]", "value": "sufficiently ameliorates deficits"}]}, {"compound": "CC1(C)CC[C@]2(C(=O)O)CC[C@]3(C)C(=CC[C@@H]4[C@@]5(C)CC[C@H](O)C(C)(C)[C@@H]5CC[C@]43C)[C@@H]2C1", "note": "[oleanolate]", "values": [{"measurement": "serum 5-HT", "setting": "serum 5-HT; [4]", "value": "no statistically significant effect"}, {"measurement": "colon 5-HT", "setting": "colon 5-HT; [4]", "value": "no statistically significant effect"}]}, {"compound": "Nc1ccc(C(=O)O)cc1", "note": "[PABA, p-aminobenzoate]", "values": [{"measurement": "serum 5-HT", "setting": "serum 5-HT; [4]", "value": "Increases"}, {"measurement": "5-HT in RIN14B chromaffin cell cultures", "setting": "RIN14B cells", "value": "elevate 5-HT"}, {"measurement": "colon 5-HT", "setting": "colon 5-HT; [4]", "value": "Increases"}]}, {"compound": "C[C@H](CCC(=O)O)C[C@H](C)C[C@H](C)C(=O)/C=C(\\O)[C@H](C)C[C@H](C)C/C=C/[C@@H](C)[C@@H](O)[C@@H](C)[C@@H](O)C[C@@H]1CC[C@@](C)([C@H]2CC[C@@](C)([C@@H](C)O)O2)O1", "note": "[ionomycin, reference compound]", "values": [{"measurement": "TPH1 expression in RIN14B cells", "setting": "TPH1 in RIN14B cells", "value": "no effect on TPH1 expression"}, {"measurement": "5-HT released from RIN14B cells", "setting": "RIN14B cells; colonic luminal filtrate 1 hr at 37° C., or 15 uM ionomycin, relative to vehicle-treated controls", "value": "stimulates 5-HT release"}]}]}
